{
  "source": "the NIST ThermoML archive (doi:10.1016/j.tca.2019.01.016)",
  "settings": "298 K; 101.33 kPa; Crystal; SIGMATEST 2.069 (Foerster) testing instrument - complex impedance measurements",
  "note": "± gives the expanded uncertainty stated by the source.",
  "data": [
    {"smiles": "[Ag]", "note": "[silver]", "values": [
      {"measurement": "electrical conductivity", "result": "6.107e+07 ± 610000", "unit": "S/m"}
    ]}
  ]
}
